Laboratory results published in US5488049A, “Method of treating learning and memory disorders using benzothiadiazide derivatives as nootropic agents” (FIDIA - Georgetown Institute for the Neuro-Sciences, priority 1993, dated 1996).

System: AMPA receptors located on CAl pyramidal neuronal membranes
Experiment: Slow bath perfusion, whole-cell: potentiation of glutamate-elicited current (with MK-801) in CAl pyramidal neurons of hippocampal slices
Format: cell-based, rat
Description: Young rats (12-16 days old) were decapitated and the brains quickly removed and placed in ice-cold Ringer solution. Thin slices of hippocampus (250 μm) were then cut with a vibratome slicer (Lancer, St. Louis, Mo.) and kept in Ringer solution at 37° C. until use. The experiments were carried out at room temperature with the slice totally submerged in a 1 ml volume recording chamber and under continuous perfusion with Ringer solution at a rate of 6 ml/min using an upright Hoffman modulation contrast microscope (Carl Zeiss, Germany) equipped with a 40×water immersion objective.
Media and drug application. The external Ringer solution contained (in mM): NaCl 120; KCl 3.1; CaCl2 2; MgCl2 1; KH2 PO4 1; NaHCO3 26; glucose 2.7; and it was continuously bubbled with 95% O2 and 5% CO2. Patch pipettes were filled with a solution containing (in mM): K-gluconate 140; MgCl2 1; ATP.Mg 2; EGTA 0.5; HEPES-KOH 10, pH 7.2. All the drugs under investigation were applied through the recording chamber perfusion system via parallel inputs having a common entry into the chamber. Agonist application was attained using two different systems that allowed a slow or a rapid solution change. Slow solution changes were used during recordings in whole-cell configuration and were obtained by exchanging the solution of the recording chamber within a few seconds. Fast solution changes were obtained with the use of the Y-shaped tubing method that allows complete exchange of solution in less than 10 ms, and is described in detail by Murase et al. (1989).
IDRA compounds (see above for structures) were first dissolved in 50 μl of DMSO, then […] of 1N NaOH and water (sufficient to reach a volume of 1 ml and a concentration of 10 mM). The final concentration was reached diluting the stock solution with Ringer solution.
Ionic currents in whole-cell configuration and outside-out excised membrane patches were monitored using the patch clamp technique (15).
The action diazoxide and the IDRA analogues were tested on the desensitization of AMPA receptors located on CAl pyramidal neuronal membranes in rat hippocampal slices. In order to evaluate whether the compounds under study increase the intensity of currents generated by the activation of non-NMDA receptors, these receptors were activated with glutamate in the presence of 5 μM MK-801 to block completely the ionic current elicited by glutamate acting on the NMDA receptor channels present in CAl pyramidal neurons. Three distinct methods of drug application were employed: 1) slow bath perfusion of agonist and drugs while recording in whole-cell mode (onset 30s); ii) fast application to outside-out patches of a fixed concentration of agonist with a double barrel pipette (onset<1 ms) in the presence and the absence of drugs; iii) fast perfusion (onset<6 ms) of increasing concentrations of agonist and drugs applied with the Y-tubing device to outside-out patches excised from neurons in brain slices and to voltage-clamped neurons in primary culture.
. The most efficacious (1 mM) derivative was IDRA21, which elicited a potentiation of 797±220% (n=4 cells), followed by IDRA 20 with a potentiation of 292±100% (n=4 cells) (FIG. 2). […]

## CC1Nc2ccc(Cl)cc2S(=O)(=O)N1 (racemic) [IDRA 21, 7-chloro-3-methyl-3,4-dihydro-2H 1,2,4-benzothiadiazine S-S dioxide]
10 μM compound, mean±SE, N=4 cells
  potentiation of glutamate-elicited current: 65±6.9%
100 μM compound, mean±SE, N=4 cells
  potentiation of glutamate-elicited current: 109±30%
1 mM
  efficacy relative to diazoxide (potentiation of glutamate current): 4 fold
1 mM compound, 50 μM glutamate, 5 μM MK-801, whole-cell, slow perfusion
  potentiation of glutamate-elicited current: 797±200%
1 mM compound, 50 μM glutamate, 5 μM MK-801, whole-cell, slow perfusion, listed as IDRA21
  potentiation of glutamate-elicited current: 797±220%
1 mM, maximal dose testable without vehicle effect
  maximal efficacy reached, in words: failed to reach maximal efficacy at 1 mM
Up to 1 mM
  potentiation of glutamate current, dose dependence: dose-dependent potentiation
